Patent US8759363B2, “Quinazoline-based T cell proliferation inhibitors” (Yissum Research Development Company of the Hebrew …, priority 2010, dated 2014)
Read-outs that look alike come from different tables or passages of the source.

Experiments:
SLP-76 = SLP-76 tyrosine phosphorylation in Jurkat cells, immunoprecipitation and western blot; format: cell-based, human; conditions: Jurkat cells treated 16 h, up to 1 μM
Description: Jurkat cells were washed in PBS containing Ca^2+ and Mg^2+ (Biological Industries, Beit Haemek), preheated to 37° C. for 15 min, and were either mock stimulated with PBS, or were stimulated for 1 minute with C305 (1:500). Cells were then collected and lysed at a concentration of 2×10^7 cells/ml in cold lysis buffer containing 1% NP-40, 10 mM Tris (pH 7.8), 150 mM NaCl, 1 mM phenylmethylsulfonyl fluoride (PMSF), 2 μg/ml pepstatin A, 1 μg/ml leupeptin, 10 mM sodium pyrophosphate, 0.4 mM EDTA, 0.4 mM sodium orthovanadate, and 50 mM NaF, 50 mM beta-glycerol phosphate pH 7.5 and 20 mM sodium pyrophosphate pH 7.5. After 20 min at 4° C., the lysates were cleared by centrifugation in a microfuge (Eppendorf, centrifuge 5427R) at 16,000×g for 10 min at 4° C. The supernatants were used directly for immunoprecipitation.
Western blots were prepared on nitrocellulose using standard techniques. Membranes were blocked in TBST buffer (10 mM Tris-HCl, pH 7.4 (TBS), 0.2% Tween 20, 170 mM NaCl) containing 5% low-fat milk, then probed overnight with the appropriate primary antibody. […]
Jurkat cells were treated with 2 for 16 h, and SLP-76 phosphorylation was measured by immunoprecipitation of SLP-76 protein followed by western blotting with an antibody to the phosphorylated tyrosines of the protein (FIG. 6A). […]

Jurkat cells = assay: Jurkat cell proliferation, BrdU incorporation; format: cell-based, human; conditions: BrdU uptake
Method in brief: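 Jurkat cells were serum-depleted for 12 h, then stimulated with ConA (10 μg/ml). Cells (1×10^5) were cultured for 3 days with or without inhibitors in duplicate wells. Proliferation was measured by 10 μM BrdU labelling and colorimetric anti-BrdU-POD ELISA (TMB, absorbance 450 nm).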

[1] = tested on: PC-3, HEK293, NIH-3T3, A375, MDA-MB-231; assay: BrdU uptake by non-hematopoietic cell lines compared with PBMC and Jurkat; format: cell-based; conditions: stimulated and non-stimulated cells
Description: (§1) Cells were depleted of fetal calf serum (FCS) for 12 hours. They were then stimulated to proliferate by addition of ConA (10 μg/ml) for PBMC from healthy individuals and for Jurkat cells, FCS (10%) for HEK293 and A375 cells, PDGF (30 ng/ml) for NIH 3T3 cells, and EGF (30 ng/ml) for MDA-MB-231, Cells (1×10^5) were cultured in 96-well plates for 3 days in the presence or absence of inhibitors at the concentrations specified in the text. Each condition was tested in duplicate wells.
(§2) Proliferation was assessed by BrdU incorporation using a colorimetric ELISA kit (Roche, Germany). Subsequent to labeling with 10 μM BrdU, DNA was denatured and the cells were incubated with anti-BrdU-POD, prior to the addition of colorimetric substrate (TMB). The reaction product was quantified by measuring absorbance at 450 nm in an ELISA plate reader (ELx800 BIO-TEK Instruments Inc.).
To characterize the mode of action of 2 (S101) in more detail, we first examined whether 2 inhibits non-hematopoietic cell lines. We studied the effect of 2 on the growth of four cell lines: NIH 3T3 (mouse embryonic fibroblasts), A-431 (human vulval carcinoma cells), MDA-MB-468 (human breast carcinoma cells), and PANC-1 (human pancreatic carcinoma cells) (FIGS. 1A-B). We also tested the inhibitors on human keratinocytes. […]

2C (stimulated) cells = assay: MLR with resting control cells, stimulated 2C cells; format: cell-based, mouse; conditions: 0.5 μM, 72 h MLR with IL-7; no inhibitor 3805
Description: The aim of this test was to determine whether 2 affects only the proliferating cells or there is a general mechanism affecting all cell numbers. For this purpose we mixed 3 cell types: […]: BALB/c, 2C and OT1; […]: CB6F1, TEA and OT2. The OT1 and OT2 are splenocytes that were isolated from OT1 and OT2 mice (Jackson Laboratories, Bar Harbor, Me.),
Thus, the ability to monitor the fate of proliferation and resting cells by FACS was enabled due to the use of the MLR described above for CD4+ and CD8+ and the addition of OT2 and OT1 splenocytes, respectively.
Proliferating cells often secrete cytokines that induce survival of neighbouring cells; since the proliferation was expected to be inhibited we added 50 ng/ml of IL-7. This concentration is sufficient to keep the cells alive, but not to induce proliferation.
Irradiated Balb splenocytes were incubated for 72 h with 2C, and OT1 splenocytes in the presence of IL-7 W/O inhibitor.
The CD4+ and CD8+ were stimulated to proliferate, whereas in the absence of specific stimuli the OT1 and OT2 cell populations were resting, and theses cells were kept alive by the administration of IL-7. […] The number of 2C and OT1 cells that were treated with 0.5 μM 2 was 286 and 1148, respectively, while the number of 2C and OT1 cells that were treated with 0.5 μM 21 (control) was 4767 and 2468, respectively. This is depicted as a bar-graph in FIG. 8C.

Keratinocytes = assay: Keratinocyte proliferation, BrdU uptake; format: cell-based; conditions: Homo sapiens, serum activated, read-out: IC50 of stimulated cells
Description: Primary human keratinocytes were maintained in keratinocyte growth medium (KGM): DMEM, 25% Nutrient mixture F-12 (HAM), 10% fetal bovine serum, 5 μg/ml insulin, 0.4 μg/ml hydrocortisone, 0.1 nM cholera toxin, 10 ng/ml epidermal growth factor, 1.8×10^−4 M adenine, 5 μg/ml transferrin, 2 nM T3, 100,000 U/l penicillin, […] streptomycin, 0.1 mg/ml amphotericin. The primary keratinocytes were cultured from small biopsy specimens.
as §1
as §2, with “Inc.). […]” for “Inc.).”

Compound: COc1cc(-c2nc(Nc3ccc(C)cc3)c3ccccc3n2)cc(OC)c1OC [Compound 2, N-p-tolyl-2-(3,4,5-trimethoxyphenyl)quinazolin-4-amine]
- tyrosine phosphorylation of SLP-76 (SLP-76): reduced but not abolished
- IC50 (Jurkat cells; nM ± SD, read-out: IC50 Jurkat cells proliferation inhibition): 29 ± 0.23 nM
- IC50 (Jurkat cells; Homo sapiens, Jurkat, nM ± SD, read-out: IC50 Jurkat cells proliferation inhibition): 30 nM
- IC50 (Jurkat cells; Homo sapiens, Jurkat, non-stimulated, read-out: IC50 of non-stimulated cells): 50 nM
- IC50 (Jurkat cells; Homo sapiens, Jurkat, stimulated, read-out: IC50 of stimulated cells): 100 nM
- IC50 values in various cells in comparison to IC50 for PBMC and Jurkat cells [1]: higher by two orders of magnitude
- number of 2C (stimulated) cells (2C (stimulated) cells): 286
- IC50 (Keratinocytes): > 10 µM
